From patent US5591741A, “Fungicidal spiroheterocyclic derivatives” (American Cyanamid Company, priority 1993, dated 1997)

Tests used:
[1] = system: Erysiphe graminis f.sp. hordei; assay: Activity against barley powdery mildew, direct therapeutic (EGT); format: in vivo; conditions: direct therapeutic foliar spray, 600 ppm, up to 7 days
Outline: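 Barley seedlings (cv. Golden Promise, single-leaf stage) were dusted with mildew conidia one day before a therapeutic foliar spray of 600 ppm compound. Plants were kept at 18 °C and 40% humidity for up to 7 days, and sporulating leaf area was rated against untreated or diluent-sprayed controls.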

Leptosphaeria nodorum = assay: Activity against wheat leafspot (LN); format: in vivo; conditions: direct therapeutic foliar spray, 600 ppm, 6-8 days
Outline: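 Wheat cv Norman at single-leaf stage spray-inoculated with 1.5×10^6 conidia/ml, held 24 h at high humidity, then sprayed therapeutically with test compound at 600 ppm. Kept 6-8 days at 22° C, 70% humidity; lesion density per leaf rated against untreated or diluent-sprayed controls.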

[2] = system: Erysiphe graminis f.sp. hordei; assay: Direct protectant activity against barley powdery mildew (EGP); format: in vivo; conditions: direct protectant foliar spray, 8 days
Outline: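 Barley seedlings (cv Golden Promise, single-leaf stage) were foliar-sprayed, held 24 h at 18 °C/40% RH, then dusted with mildew conidia. After 8 days at 18 °C/40% RH, sporulating leaf area was scored as a rating against untreated or diluent-sprayed controls.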

Pyricularia oryzae = format: in vivo; conditions: rice seedlings, direct therapeutic foliar spray, 600 ppm, 4-5 days
[3] = system: Pseudocercosporella herpotrichoides; assay: Activity against wheat eyespot in-vitro (PHI); format: cell-based; conditions: 10 ppm, 10 days, 20° C., mycelial growth
Outline: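 P. herpotrichoides mycelial fragments (5×10^4/ml) grown in half-strength PDB with compound at 10 ppm final, added from acetone. Incubated 10 days at 20 °C; mycelial growth rated against untreated or diluent controls.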

Phytophthora infestans = format: in vivo; conditions: tomato, direct protectant foliar spray
Rhizoctonia solani = assay: Activity against Rhizoctonia in-vitro (RSI); format: cell-based; conditions: 10 ppm, 10 days, 20° C., mycelial growth
Outline: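 R. solani mycelial fragments (5×10^4/ml) in half-strength Potato Dextrose Broth with compound added from acetone to 10 ppm final. Mycelial growth assessed after 10 days at 20° C, rated against untreated or diluent control.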

Venturia inaequalis = assay: Activity against apple scab in-vitro (VII); format: cell-based; conditions: 10 ppm, 10 days, 20° C., mycelial growth
Outline: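 Compound in acetone was tested at 10 ppm final in half-strength Potato Dextrose Broth inoculated with V. inaequalis mycelial fragments and spores at 5×10^4 propagules/ml. After 10 days at 20° C, mycelial growth was rated against untreated or diluent controls.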

Botrytis cinerea = assay: Direct protectant activity against broad bean grey mould (BCB); format: in vivo; conditions: direct protectant foliar spray, 600 ppm, 4 days
Outline: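 Broad bean plants (cv The Sutton, two leaf pairs) sprayed on upper leaf surfaces at 600 ppm, then inoculated 24 h later with 10^6 conidia/ml. Kept 4 days at 22 °C, high humidity; disease control rated from % leaf area with lesions against untreated or diluent controls.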

Alternaria solani = assay: Activity against tomato early blight (AS); format: in vivo; conditions: Table VI; tomato seedlings, contact prophylactic foliar spray, 4 days
Outline: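 Foliar contact prophylactic spray on tomato seedlings (cv Outdoor Girl, second true leaf expanded) in acetone/water 50:50 with 0.04% Tween 20; 24 h at 20° C, 40% R.H., then inoculation with 10^4 spores/ml A. solani conidia. Kept moist at 21° C; lesion cover rated 4 days post-inoculation against untreated or diluent-sprayed controls.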

Plasmopara viticola = assay: Antisporulant activity against vine downy mildew (PVA); format: in vivo; conditions: vine leaves, antisporulant foliar spray, 600 ppm, 750 l/ha
Outline: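 Cabernet Sauvignon vines (~8 cm) inoculated on lower leaf surfaces with 5×10^4 zoosporangia/ml, held 24 h at 21° C high humidity then 24 h glasshouse. Infected leaves sprayed underside with 600 ppm compound in 1:1 water/acetone, 0.04% Tween 20, 750 l/ha; 96 h glasshouse, 24 h humidity. Sporulating leaf area rated versus control.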

CC(C)(C)C1CCC2(CC1)CC(NC1C3CC4CC(C3)CC1C4)CO2 (centres unmarked) [Compound 86]
disease control rating EGT [1]: 2 (greater than 80% disease control)
disease control rating LN (Leptosphaeria nodorum): 0 (less than 50% disease control)
disease control rating EGP [2]: 2 (greater than 80% disease control)
disease control rating PO (Pyricularia oryzae): 0 (less than 50% disease control)
disease control rating PHI [3]: 0 (less than 50% disease control)
disease control rating PIP (Phytophthora infestans): 2 (greater than 80% disease control)
disease control rating RSI (Rhizoctonia solani): 0 (less than 50% disease control)
disease control rating VII (Venturia inaequalis): 1 (about 50-80% disease control)
disease control rating BCB (Botrytis cinerea): 0 (less than 50% disease control)
disease control rating AS (Alternaria solani): 2 (greater than 80% disease control)
disease control rating PVA (Plasmopara viticola): 0 (less than 50% disease control)

CCC(C)(C)C1CCC2(CC1)CC(NC1CCCCC1)CO2 (centres unmarked) [Compound 51]
disease control rating EGT [1]: 2 (greater than 80% disease control)
disease control rating LN (Leptosphaeria nodorum): 0 (less than 50% disease control)
disease control rating EGP [2]: 2 (greater than 80% disease control)
disease control rating PO (Pyricularia oryzae): 0 (less than 50% disease control)
disease control rating PHI [3]: 1 (about 50-80% disease control)
disease control rating PIP (Phytophthora infestans): 2 (greater than 80% disease control)
disease control rating RSI (Rhizoctonia solani): 1 (about 50-80% disease control)
disease control rating VII (Venturia inaequalis): 1 (about 50-80% disease control)
disease control rating BCB (Botrytis cinerea): 0 (less than 50% disease control)
disease control rating AS (Alternaria solani): 2 (greater than 80% disease control)
disease control rating PVA (Plasmopara viticola): 0 (less than 50% disease control)

CCCN(CC(C)C)C1COC2(CCC(C(C)(C)C)CC2)C1 (centres unmarked) [Compound 123]
disease control rating EGT [1]: 2 (greater than 80% disease control)
disease control rating LN (Leptosphaeria nodorum): 0 (less than 50% disease control)
disease control rating EGP [2]: 2 (greater than 80% disease control)
disease control rating PO (Pyricularia oryzae): 1 (about 50-80% disease control)
disease control rating PHI [3]: 0 (less than 50% disease control)
disease control rating PIP (Phytophthora infestans): 0 (less than 50% disease control)
disease control rating RSI (Rhizoctonia solani): 0 (less than 50% disease control)
disease control rating VII (Venturia inaequalis): 0 (less than 50% disease control)
disease control rating BCB (Botrytis cinerea): 0 (less than 50% disease control)
disease control rating AS (Alternaria solani): 0 (less than 50% disease control)
disease control rating PVA (Plasmopara viticola): 0 (less than 50% disease control)

CCN(CC1(C)CCCCC1)C1COC2(CCC(C(C)(C)C)CC2)C1 (centres unmarked) [Compound 126]
disease control rating EGT [1]: 2 (greater than 80% disease control)
disease control rating LN (Leptosphaeria nodorum): 0 (less than 50% disease control)
disease control rating EGP [2]: 2 (greater than 80% disease control)
disease control rating PO (Pyricularia oryzae): 0 (less than 50% disease control)
disease control rating PHI [3]: 0 (less than 50% disease control)
disease control rating PIP (Phytophthora infestans): 0 (less than 50% disease control)
disease control rating RSI (Rhizoctonia solani): 0 (less than 50% disease control)
disease control rating VII (Venturia inaequalis): 1 (about 50-80% disease control)
disease control rating BCB (Botrytis cinerea): 0 (less than 50% disease control)
disease control rating AS (Alternaria solani): 0 (less than 50% disease control)
disease control rating PVA (Plasmopara viticola): 0 (less than 50% disease control)

CC(C)(C)C1CCC2(CC1)CC(NC1CCC3CCCCC3C1)CO2 (centres unmarked) [Compound 138]
disease control rating EGT [1]: 0 (less than 50% disease control)
disease control rating LN (Leptosphaeria nodorum): 0 (less than 50% disease control)
disease control rating EGP [2]: 0 (less than 50% disease control)
disease control rating PO (Pyricularia oryzae): 0 (less than 50% disease control)
disease control rating PHI [3]: 0 (less than 50% disease control)
disease control rating PIP (Phytophthora infestans): 2 (greater than 80% disease control)
disease control rating RSI (Rhizoctonia solani): 0 (less than 50% disease control)
disease control rating VII (Venturia inaequalis): 0 (less than 50% disease control)
disease control rating BCB (Botrytis cinerea): 0 (less than 50% disease control)
disease control rating AS (Alternaria solani): 0 (less than 50% disease control)
disease control rating PVA (Plasmopara viticola): 0 (less than 50% disease control)

CC(C)(C)C1CCC2(CC1)CC(N1CCCC3CCCCC31)CO2 (centres unmarked) [Compound 116]
disease control rating EGT [1]: 2 (greater than 80% disease control)
disease control rating LN (Leptosphaeria nodorum): 0 (less than 50% disease control)
disease control rating EGP [2]: 2 (greater than 80% disease control)
disease control rating PO (Pyricularia oryzae): 0 (less than 50% disease control)
disease control rating PHI [3]: 0 (less than 50% disease control)
disease control rating PIP (Phytophthora infestans): 0 (less than 50% disease control)
disease control rating RSI (Rhizoctonia solani): 0 (less than 50% disease control)
disease control rating VII (Venturia inaequalis): 2 (greater than 80% disease control)
disease control rating BCB (Botrytis cinerea): 1 (about 50-80% disease control)
disease control rating AS (Alternaria solani): 0 (less than 50% disease control)
disease control rating PVA (Plasmopara viticola): 0 (less than 50% disease control)

CCCCCCNC1CC2(CCC(C(C)(C)C)CC2)OC1C (centres unmarked) [Compound 84]
disease control rating EGT [1]: 2 (greater than 80% disease control)
disease control rating LN (Leptosphaeria nodorum): 0 (less than 50% disease control)
disease control rating EGP [2]: 2 (greater than 80% disease control)
disease control rating PO (Pyricularia oryzae): 0 (less than 50% disease control)
disease control rating PHI [3]: 0 (less than 50% disease control)
disease control rating PIP (Phytophthora infestans): 2 (greater than 80% disease control)
disease control rating RSI (Rhizoctonia solani): 1 (about 50-80% disease control)
disease control rating VII (Venturia inaequalis): 1 (about 50-80% disease control)
disease control rating BCB (Botrytis cinerea): 0 (less than 50% disease control)
disease control rating AS (Alternaria solani): 0 (less than 50% disease control)
disease control rating PVA (Plasmopara viticola): 0 (less than 50% disease control)

CC(C)(C)C1CCC2(CC1)CC(NC1CCCCCC1)CO2 (centres unmarked) [Compound 104]
disease control rating EGT [1]: 2 (greater than 80% disease control)
disease control rating LN (Leptosphaeria nodorum): 1 (about 50-80% disease control)
disease control rating EGP [2]: 2 (greater than 80% disease control)
disease control rating PO (Pyricularia oryzae): 0 (less than 50% disease control)
disease control rating PHI [3]: 0 (less than 50% disease control)
disease control rating PIP (Phytophthora infestans): 2 (greater than 80% disease control)
disease control rating RSI (Rhizoctonia solani): 0 (less than 50% disease control)
disease control rating VII (Venturia inaequalis): 1 (about 50-80% disease control)
disease control rating BCB (Botrytis cinerea): 0 (less than 50% disease control)
disease control rating AS (Alternaria solani): 0 (less than 50% disease control)
disease control rating PVA (Plasmopara viticola): 0 (less than 50% disease control)

CC(C)(C)C1CCC2(CC1)CC(NC1CCCC1)CO2 (centres unmarked) [Compound 70]
disease control rating EGT [1]: 2 (greater than 80% disease control)
disease control rating LN (Leptosphaeria nodorum): 0 (less than 50% disease control)
disease control rating EGP [2]: 2 (greater than 80% disease control)
disease control rating PO (Pyricularia oryzae): 0 (less than 50% disease control)
disease control rating PHI [3]: 0 (less than 50% disease control)
disease control rating PIP (Phytophthora infestans): 2 (greater than 80% disease control)
disease control rating RSI (Rhizoctonia solani): 0 (less than 50% disease control)
disease control rating VII (Venturia inaequalis): 1 (about 50-80% disease control)
disease control rating BCB (Botrytis cinerea): 0 (less than 50% disease control)
disease control rating AS (Alternaria solani): 1 (about 50-80% disease control)
disease control rating PVA (Plasmopara viticola): 0 (less than 50% disease control)

CCCCCCCCNCC1COC2(CCC(C(C)(C)C)CC2)C1 (centres unmarked) [Compound 183, 8-t-butyl-3-n-octylaminomethyl-1-oxaspiro(4,5)-decane]
disease control rating EGT [1]: 2 (greater than 80% disease control)
disease control rating LN (Leptosphaeria nodorum): 0 (less than 50% disease control)
disease control rating EGP [2]: 2 (greater than 80% disease control)
disease control rating PO (Pyricularia oryzae): 0 (less than 50% disease control)
disease control rating PHI [3]: 1 (about 50-80% disease control)
disease control rating PIP (Phytophthora infestans): 1 (about 50-80% disease control)
disease control rating RSI (Rhizoctonia solani): 2 (greater than 80% disease control)
disease control rating VII (Venturia inaequalis): 2 (greater than 80% disease control)
disease control rating BCB (Botrytis cinerea): 0 (less than 50% disease control)
disease control rating AS (Alternaria solani): 0 (less than 50% disease control)
disease control rating PVA (Plasmopara viticola): 0 (less than 50% disease control)
